Results reported in EPA's CvTdb concentration-time database.

Columns and labels:
[1] = system: Rat; experiment: concentration in brain after dosing; conditions: 0.5 h; dosed: Fluorotelomer alcohol 8+2; 24 mg/kg; oral; Male; Harlan Sprague Dawley
[2] = system: Rat; experiment: concentration in liver after dosing; conditions: 3 h; dosed: Fluorotelomer alcohol 8+2; 80 mg/kg; oral; Female; Harlan Sprague Dawley
[3] = system: Rat; experiment: concentration in liver after dosing; conditions: 12 h; dosed: Fluorotelomer alcohol 8+2; 24 mg/kg; oral; Male; Harlan Sprague Dawley
[4] = system: Rat; experiment: concentration in plasma after dosing; conditions: dosed: Fluorotelomer alcohol 8+2, 40 mg/kg, iv, Male, F344
[5] = system: Rat; experiment: concentration in kidney after dosing; conditions: 1 h; dosed: Fluorotelomer alcohol 8+2; 24 mg/kg; oral; Male; Harlan Sprague Dawley
[6] = system: Rat; experiment: concentration in plasma after dosing; conditions: 9 h; dosed: Primidone; 130 mg/kg; oral; Female; F344
[7] = system: Rat; experiment: concentration in brain after dosing; conditions: 864 h; dosed: Perfluorodecanoic acid; 10 mg/kg; oral; Female; Harlan Sprague Dawley
[8] = system: Rat; experiment: concentration in kidney after dosing; conditions: 1848 h; dosed: Perfluorodecanoic acid; 10 mg/kg; oral; Female; Harlan Sprague Dawley
[9] = system: Rat; experiment: concentration in liver after dosing; conditions: 4 h; dosed: Bis 2-Chloroethoxy Methane; 20 mg/kg; iv; Male; F344
[10] = system: Rat; experiment: concentration in liver after dosing; conditions: 5 h; dosed: Bis 2-Chloroethoxy Methane; 20 mg/kg; iv; Male; F344
[11] = system: Rat; experiment: concentration in plasma after dosing; conditions: 6 h; dosed: Bis 2-Chloroethoxy Methane; 20 mg/kg; iv; Female; F344
[12] = system: Rat; experiment: concentration in plasma after dosing; conditions: 3 h; dosed: Bis 2-Chloroethoxy Methane; 40 mg/kg; iv; Male; Harlan Sprague Dawley
[13] = system: Rat; experiment: concentration in thymus after dosing; conditions: 8 h; dosed: Bis 2-Chloroethoxy Methane; 20 mg/kg; iv; Female; Harlan Sprague-Dawley
[14] = system: Rat; experiment: concentration in plasma after dosing; conditions: 20 min; dosed: Bis 2-Chloroethoxy Methane; 20 mg/kg; iv; Male; F344
[15] = system: Rat; experiment: concentration in thymus after dosing; conditions: 7 h; dosed: Bis 2-Chloroethoxy Methane; 20 mg/kg; iv; Male; F344
[16] = system: Rat; experiment: concentration in plasma after dosing; conditions: 20 min; dosed: Bis 2-Chloroethoxy Methane; 20 mg/kg; iv; Female; F344
[17] = system: Rat; experiment: concentration in thymus after dosing; conditions: 10 min; dosed: Bis 2-Chloroethoxy Methane; 20 mg/kg; iv; Female; F344
[18] = system: Rat; experiment: concentration in plasma after dosing; conditions: 10 min; dosed: Bis 2-Chloroethoxy Methane; 20 mg/kg; iv; Female; F344
[19] = system: Rat; experiment: concentration in plasma after dosing; conditions: dosed: dichloroacetic acid, 100 mg/kg, oral, Male, F344
[20] = system: Rat; experiment: concentration in plasma after dosing; conditions: dosed: dichloroacetic acid, 60 mg/kg, iv, Female, Harlan Sprague-Dawley
[21] = system: Rat; experiment: concentration in plasma after dosing; conditions: 2 h; dosed: Wyeth-14643; 1.0 mg/kg; oral; Male; Sprague-Dawley
[22] = system: Rat; experiment: concentration in plasma after dosing; conditions: 5 h; dosed: Wyeth-14643; 1.0 mg/kg; oral; Male; Sprague-Dawley
[23] = system: Rat; experiment: concentration in liver after dosing; conditions: 6.667 h; dosed: Thiodiglycolic Acid; 20 mg/kg; iv; Female; Harlan Sprague Dawley
[24] = system: Rat; experiment: concentration in heart after dosing; conditions: 5.333 h; dosed: Thiodiglycolic Acid; 20 mg/kg; iv; Female; Harlan Sprague Dawley
[25] = system: Rat; experiment: concentration in heart after dosing; conditions: 3 h; dosed: Thiodiglycolic Acid; 20 mg/kg; iv; Female; Harlan Sprague Dawley
[26] = system: Rat; experiment: concentration in liver after dosing; conditions: 6.667 h; dosed: Thiodiglycolic Acid; 20 mg/kg; iv; Female; Harlan Sprague Dawley; remark: listed apart in the source
[27] = system: Rat; experiment: concentration in heart after dosing; conditions: 20 min; dosed: Thiodiglycolic Acid; 20 mg/kg; iv; Female; F344
[28] = system: Rat; experiment: concentration in liver after dosing; conditions: 2 h; dosed: Thiodiglycolic Acid; 20 mg/kg; iv; Male; Harlan Sprague Dawley
[29] = system: Rat; experiment: concentration in thymus after dosing; conditions: 10 min; dosed: Thiodiglycolic Acid; 20 mg/kg; iv; Male; F344
[30] = system: Rat; experiment: concentration in thymus after dosing; conditions: 2 h; dosed: Thiodiglycolic Acid; 20 mg/kg; iv; Male; Harlan Sprague Dawley
[31] = system: Rat; experiment: concentration in thymus after dosing; conditions: 5.333 h; dosed: Thiodiglycolic Acid; 20 mg/kg; iv; Female; Harlan Sprague Dawley
[32] = system: Rat; experiment: concentration in thymus after dosing; conditions: 3 h; dosed: Thiodiglycolic Acid; 20 mg/kg; iv; Female; Harlan Sprague Dawley
[33] = system: Rat; experiment: concentration in plasma after dosing; conditions: 2 h; dosed: Thiodiglycolic Acid; 20 mg/kg; iv; Female; Harlan Sprague Dawley
[34] = system: Rat; experiment: concentration in thymus after dosing; conditions: 10 h; dosed: Thiodiglycolic Acid; 20 mg/kg; iv; Male; F344
[35] = system: Rat; experiment: concentration in thymus after dosing; conditions: 6.667 h; dosed: Thiodiglycolic Acid; 20 mg/kg; iv; Female; Harlan Sprague Dawley
[36] = system: Rat; experiment: concentration in plasma after dosing; conditions: 4 h; dosed: Thiodiglycolic Acid; 20 mg/kg; iv; Female; Harlan Sprague Dawley
[37] = system: Rat; experiment: concentration in plasma after dosing; conditions: 0.5 h; dosed: Di-n-butyl phthalate; 50 mg/kg; oral; Male; Sprague-Dawley
[38] = system: Rat; experiment: concentration in plasma after dosing; conditions: 3 h; dosed: Di-n-butyl phthalate; 20 mg/kg; iv; Male; Sprague-Dawley
[39] = system: Rat; experiment: concentration in plasma after dosing; conditions: 10 h; dosed: Di-n-butyl phthalate; 50 mg/kg; oral; Male; Sprague-Dawley
[40] = system: Rat; experiment: concentration in plasma after dosing; conditions: 15 h; dosed: Di-n-butyl phthalate; 100 mg/kg; oral; Male; Sprague-Dawley

Compound `OCCC(F)(F)C(F)(F)C(F)(F)C(F)(F)C(F)(F)C(F)(F)C(F)(F)C(F)(F)F` [Fluorotelomer alcohol 8+2] has a concentration in brain [1] of 1810 ng/g, a concentration in liver [2] of 8140 ng/g and a concentration in liver [3] of 719 ng/g. It also gave a concentration in plasma ([4]; 0.25 h) of 12700 ng/mL, a concentration in plasma ([4]; 6 h) of 153 ng/mL and a concentration in kidney [5] of 1140 ng/g.
Compound `CCC1(c2ccccc2)C(=O)NC(=O)NC1=O` [Phenobarbital] has a concentration in plasma [6] of 2440 ng/mL.
`O=C(O)C(F)(F)C(F)(F)C(F)(F)C(F)(F)C(F)(F)C(F)(F)C(F)(F)C(F)(F)C(F)(F)F` [Perfluorodecanoic acid] was tested, and the concentration in brain [7] was 1010 ng/g and the concentration in kidney [8] was 11800 ng/g.
Compound `ClCCOCOCCCl` [Bis 2-Chloroethoxy Methane] has a concentration in liver [9] of 161 ng/g, a concentration in liver [10] of 33.4 ng/g and a concentration in plasma [11] of 16.9 ng/mL. For the same compound, the concentration in plasma [12] was 362 ng/mL, the concentration in thymus [13] was 13.2 ng/g and the concentration in plasma [14] was 3180 ng/mL. It also gave a concentration in thymus [15] of 15.2 ng/g, a concentration in plasma [16] of 3810 ng/mL and a concentration in thymus [17] of 50600 ng/g. It also gave a concentration in plasma [18] of 9960 ng/mL.
`O=C(O)C(Cl)Cl` [dichloroacetic acid] was tested, and the concentration in plasma ([19]; 2 min) was 2560 ng/mL, the concentration in plasma ([19]; 1.25 h) was 43500 ng/mL and the concentration in plasma ([20]; 1 h) was 16800 ng/mL. The concentration in plasma ([20]; 2 h) was 1340 ng/mL.
With `Cc1cccc(Nc2cc(Cl)nc(SCC(=O)O)n2)c1C` the concentration in plasma [21] was 266 ng/mL and the concentration in plasma [22] was 118 ng/mL.
`O=C(O)CSCC(=O)O` [Thiodiglycolic Acid] gave a concentration in liver [23] of 17000 ng/g, a concentration in heart [24] of 321 ng/g and a concentration in heart [25] of 558 ng/g. For the same compound, the concentration in liver [26] was 1600 ng/g, the concentration in heart [27] was 3820 ng/g and the concentration in liver [28] was 112000 ng/g. For the same compound, the concentration in thymus [29] was 9340 ng/g, the concentration in thymus [30] was 2260 ng/g and the concentration in thymus [31] was 1080 ng/g. The concentration in thymus [32] was 986 ng/g, the concentration in plasma [33] was 1560 ng/mL and the concentration in thymus [34] was 477 ng/g. For the same compound, the concentration in thymus [35] was 335 ng/g and the concentration in plasma [36] was 360 ng/mL.
`CCCCOC(=O)c1ccccc1C(=O)O` [Mono-n-butyl phthalate] was tested, and the concentration in plasma [37] was 21100 ng/mL, the concentration in plasma [38] was 1640 ng/mL and the concentration in plasma [39] was 1170 ng/mL. The concentration in plasma [40] was 900 ng/mL.
